According to patent publication US20180353445A1, “METHODS AND COMPOSITIONS RELATING TO PROTEASOME INHIBITOR RESISTANCE” (Whitehead Institute for Biomedical Research, priority 2017, published 2018):

Key:
[1] = target: T1, FDX1 (Homo sapiens, UniProt P10109); test: Electron transfer assay, reduced FDX1 to SDA complex; format: biochemical; details: upon addition of cysteine
T1 construct: made in house
T1 sequence (P10109 62-184): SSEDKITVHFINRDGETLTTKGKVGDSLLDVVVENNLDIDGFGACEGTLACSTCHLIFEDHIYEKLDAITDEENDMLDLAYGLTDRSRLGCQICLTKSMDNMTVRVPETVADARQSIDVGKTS
Text: (§1) Fe—S clusters are generated from sulfur extracted from cysteine by the iron sulfur-cluster (ISC) core complex (NFS1-ISD11-Acp-ISCU)2 and iron. A reductant (FDX1 or FDX2) is required for Fc-S cluster biosynthesis (Lill and Muhlenhoff, 2006; Py and Barras, 2010) (FIG. 53A). To investigate the effect of elesclomol on mitochondrial Fe—S cluster biosynthesis, we utilized in vitro Fe—S cluster assembly assays. […] As further confirmation, we examined the effect of elesclomol on electron transfer from reduced FDX1 to the ISC core complex upon the addition of cysteine.
Electron transfer assay—Electron transfer from re-FDX1 SDA complex was monitored as follows. 25 μM reduced FDX1 was mixed with 25 μM SDA, and 125 μM L-cysteine was added to initiate the reaction. To test the effect of the drug, samples contained 25-500 μM elesclomol (1-20× relative to FDX1). Samples were then transferred to 1 cm path-length quartz cuvettes, sealed with rubber septa, and UV/vis spectra were collected at 25° C. The growth of absorbance at 456 nm was used to monitor the oxidation of reduced FDX1 as a result of electron transfer to SDA.

[2] = target: T2, cysteine desulfurase (NFS1-ISD11-Acp)2 (SDA) (Homo sapiens, UniProt Q9Y697); test: Cysteine desulfurase assay (DTT as the reductant); format: biochemical
T2 construct: made in house
T2 sequence (Q9Y697 56-457): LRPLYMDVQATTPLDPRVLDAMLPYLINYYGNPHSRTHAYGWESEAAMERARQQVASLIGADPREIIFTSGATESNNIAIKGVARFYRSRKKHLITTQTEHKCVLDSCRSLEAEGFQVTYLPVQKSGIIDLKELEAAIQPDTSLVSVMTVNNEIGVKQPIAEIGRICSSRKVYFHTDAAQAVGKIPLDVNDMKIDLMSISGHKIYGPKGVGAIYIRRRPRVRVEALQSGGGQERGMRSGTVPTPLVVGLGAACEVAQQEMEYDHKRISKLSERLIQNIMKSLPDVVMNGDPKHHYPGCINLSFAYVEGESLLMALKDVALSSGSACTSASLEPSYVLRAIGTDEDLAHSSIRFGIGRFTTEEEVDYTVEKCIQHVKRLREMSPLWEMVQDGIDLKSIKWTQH
T2 sequence (P0A6A8 2-78, further chain): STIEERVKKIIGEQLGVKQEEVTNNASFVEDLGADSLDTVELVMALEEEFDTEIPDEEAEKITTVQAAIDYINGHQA
T2 sequence (Q9HD34 whole entry, further chain): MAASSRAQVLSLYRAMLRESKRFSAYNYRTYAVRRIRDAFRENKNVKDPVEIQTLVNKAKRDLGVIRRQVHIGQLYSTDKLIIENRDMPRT
Text: as §1
Cysteine desulfurase assay—The protein samples used in the nisteine desulfurase assay and Fe—S cluster assembly experiments were prepared in an anaerobic chamber (Coy Laboratory) with samples buffer-exchanged extensively prior to the experiments with anaerobic buffer containing 20 mM HEPES at pH 7.6 and 150 mM NaCl (HN buffer). The reaction volumes in all the experiments were kept to […]. […]
The cysteine desulfurase assay reactions (300 μL in HN buffer) contained 10 μM SDA. […] The quenched reaction was incubated for 15 min at room temperature, and then the absorbance at 670 nm was measured and used to estimate the amount of sulfide by comparison to a standard curve obtained from known concentrations of Na2S.

`CN(NC(=O)CC(=O)NN(C)C(=S)c1ccccc1)C(=S)c1ccccc1` [elesclomol] was tested, and the “inhibition of electron transfer from reduced FDX1 to the NFS1 component of the ISC core complex” value [1] was “progressive inhibition of electron transfer” and the “effect on cysteine desulfurase activity” value [2] was “no inhibitory effect”.
